Series [1] is described as follows: Aqueous solubility at room temperature. It counts as physicochemical.
Series [2] can be described thus: Hygroscopicity and physical (solid form) stability. It counts as physicochemical. The following applies: for physical stability: ambient conditions; for conversion to another solid form: aqueous solution, atmosphere, dehydration or recrystallization.
A further series has as its target H4 receptor (Homo sapiens, UniProt Q9H3N8). The following applies: as described in U.S. Pat. No. 7,507,737, 8,343,989 and others; cited from earlier work.

This is an account of results in patent US8859575B2, “Benzoimidazol-2-yl pyrimidine modulators of the histamine h4 receptor” (Janssen Pharmaceutica NV, priority 2013, dated 2014).

Entries after “also recorded” stand apart in the source; their conditions may differ.

Sequence of H4 receptor (Q9H3N8 whole entry): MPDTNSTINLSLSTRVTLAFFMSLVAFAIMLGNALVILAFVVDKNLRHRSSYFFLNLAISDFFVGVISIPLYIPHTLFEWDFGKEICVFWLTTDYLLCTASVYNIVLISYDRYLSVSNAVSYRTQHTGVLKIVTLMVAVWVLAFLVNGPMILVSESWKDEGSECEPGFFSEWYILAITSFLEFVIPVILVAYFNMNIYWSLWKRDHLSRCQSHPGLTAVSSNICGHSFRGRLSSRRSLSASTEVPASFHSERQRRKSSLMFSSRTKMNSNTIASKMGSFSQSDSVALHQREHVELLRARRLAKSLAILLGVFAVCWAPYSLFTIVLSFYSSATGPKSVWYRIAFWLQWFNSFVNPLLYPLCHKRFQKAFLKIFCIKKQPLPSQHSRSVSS

As for `Cc1cc(C)c2nc(-c3cnc(NCCCC4CCN(C)CC4)nc3C)[nH]c2c1.O=C(O)C(O)C(O)C(=O)O` [Compound 3, 5-(4,6-dimethyl-1H-benzimidazol-2-yl)-4-methyl-N-[3-(1-methyl-4-piperidinyl)-propyl]-2-pyrimidinamine 2,3-dihydroxybutanedioate tetrahydrate (1:0.5:4)], the aqueous solubility entry in series [1] was “about 4.1 mg/ml”. Also, in series [2], the physical stability entry is “stable under ambient conditions” and the “conversion to another solid form” value is reported as “converts to Compound 2.2 upon dehydration by heating or in low relative humidity; also recorded: no conversion of Compound 3 to other forms was detected”.
On to `Cc1cc(C)c2nc(-c3cnc(NCCCC4CCN(C)CC4)nc3C)[nH]c2c1` [Compound 2.2, 5-(4,6-dimethyl-1H-benzimidazol-2-yl)-4-methyl-N-[3-(1-methyl-4-piperidinyl)-propyl]-2-pyrimidinamine 2,3-dihydroxybutanedioate (1:0.5)], for which, in series [2], the hygroscopicity entry was “absorbs water readily”, the physical stability result is recorded as “physically stable only when stored in a tightly sealed vial at ambient condition” and the “conversion to another solid form” value is “converts to Compound 3 when exposed to the atmosphere”.
In the case of `Cc1cc(C)c2nc(-c3cnc(NCCCC4CCN(C)CC4)nc3C)[nH]c2c1` [Compound 2, [5-(4,6-Dimethyl-1H-benzoimidazol-2-yl)-4-methyl-pyrimidin-2-yl]-[3-(1-methyl-piperidin-4-yl)-propyl]-amine], the “H4 receptor modulator activity” value on H4 receptor is “has H4 receptor modulator activity”.
`Cc1cc(C)c2nc(-c3cnc(NCCCC4CCN(C)CC4)nc3C)[nH]c2c1.O=C(O)C(O)C(O)C(=O)O` [Compound 2.1, 5-(4,6-dimethyl-1H-benzimidazol-2-yl)-4-methyl-N-[3-(1-methyl-4-piperidinyl)-propyl]-2-pyrimidinamine 2,3-dihydroxybutanedioate (1:0.5)]: in series [1], the aqueous solubility result was “about 1.1 g/ml”. Moreover, in series [2], the hygroscopicity result is recorded as “hygroscopic”, the “relative humidity above which it converts to Compound 3” value is on record as “above 70 % relative humidity” and the “conversion to another solid form” value is listed as “forms the tetrahydrate Compound 3 in aqueous solution”.
